Measurements from patent US8278359B2, “Compositions containing amines and use thereof to treat acne or reduce the appearance of oil or pores on the skin” (Johnson & Johnson Consumer Companies, Inc., priority 2005, dated 2012).

Assays:
Human keratinocytes = experiment: Visual contraction of keratinocytes by real time microscopy (cell area); assay type: cell-based; conditions: 0.1%
Protocol: Human keratinocytes and Epilife culture media (Cascade Biologics, Portland, Oreg.) were cultured at 37° C. in a humidified atmospheres of 5% CO2/95% air. Glass Cover Slides (Applied Biophysics, Troy, N.Y.) were coated with 0.01 mg/ml Laminin V (Sigma Aldirch, St Louis, Mo.) in sterile Phosphate Buffered Saline (Gibco Life Sciences, San Diego, Calif.). Human keratinocytes were prepared at a density of 0.125×10^6 cells/mL in Epilife culture media. Human keratinocytes were plated at 3.75×10^4 cells/well on a 6 well plate containing Laminin coated coverslips and cultured at 37° C. in a humidified atmospheres of 5% […] for 48 hrs. Individual coverslips were transferred to a open bath imaging chamber (Warner Instruments, Hamden, Conn.) mounted on a Leica inverted microscope (Leitz DM1L) with an attached CCD camera. Cells were perfused with Hank's Buffered Salt Solution (HBSS; Gibco Life Sciences, San Diego, Calif.) at flow rate of 1 ml/min using a peristaltic pump (Cole Parmer, Vernon Hills, Ill.). […] Cell area was determined using Scion Image software (Version 4.0.2), and reductions in cell area were reported as the ratio of cell area after treatment to cell area prior to treatment

[1] = test system: TNF (tissue necrosis factor-alpha); experiment: PHA-stimulated peripheral blood lymphocyte cytokine release: TNF; assay type: cell-based; conditions: Homo sapiens, 48 h, read-out: TNF % inh.
Source text: (§1) The ability of various amines to affect the inflammatory responses was illustrated by its ability to reduce the production of cytokines by human lymphocytes stimulated with the T-cell receptor (TCR) activating agent phytohaemagglutinin (PHA) in the following assay.
(§2) Human leukocytes were collected from a healthy adult […] via leukopheresis, and adjusted to a density Of 1×10^6 cells/mL in serum free lymphocyte growth medium (ExVivo-15, Biowhittaker, Walkersville, Md.). PBLs were stimulated with 10 μg/mL PHA in the presence or absence of test samples following published methods (Hamamoto Y., et al. Exp Dermatol 2:231-235, 1993). The following compounds were evaluated N,N,N′,N′-Tetrakis(2-hydroxypropyl)ethylenediamine (THPED, available from BASF under the tradename “Quadrol” or “Neutrol”), N,N,N,N-Tetramethylethylenediamine (TEMED, available from Pfaltz & Bauer Chemicals (Waterbury, Conn.)), and Diethylenetriamine (available from Sigma-Aldrich) Following a 48 hour incubation at 37° C. with 5% CO2, the supernatant was removed and evaluated for cytokine content using commercially available multiplex cytokine detection kit.

IFN (interferon-gamma) = experiment: PHA-stimulated peripheral blood lymphocyte cytokine release: IFN; assay type: cell-based; conditions: Homo sapiens, 48 h, read-out: IFN % inh.
Source text: as §1, §2

tyrosinase = experiment: Tyrosinase activity in lysates of treated B16 cells (DOPA, absorbance 490 nm); assay type: cell-based, murine; conditions: pH 7.2, B16 cells 48 hours, activity at 3-hours, normalized for total protein
Protocol: THPED was also tested for its ability to induce tyrosinase activity in B16 cells by spectroscopic measuring of the final product, melanin. B16 cells were treated with THPED at different concentrations at pH 7.2 for 48 hours and cells were then lysed in 250 μl of PBS containing 1% Triton X-100 (Sigma, St. Louis, Mo.). The lysates were collected and centrifuged at 14,000 rpm for 5 minutes at 4° C. to pellet any insoluble material. Lysates (100 μl) were transferred to a 96 well assay plate (Corning Costar, San Diego, Calif.) and mixed with 100 μl of 0.1% (w/v) DOPA in PBS. The absorbance at 490 nm was then monitored from 0 to 12 hours using a VersaMax Plate Spectrophotometer (Molecular Devices, Sunnyvale, Calif.) and SoftMax Pro analytical software (Molecular Devices, Sunnyvale, Calif.). The tyrosinase activities were normalized for total protein using the BioRad Dc Protein Assay (Bio Rad, Hercules, Calif.).

macrophages = conditions: Bhide M V et al., Immunopharmacol. 1985; cited from earlier work

In the case of CC(O)CN(CCN(CC(C)O)CC(C)O)CC(C)O (centres unmarked) [THPED, N,N,N′,N′-Tetrakis(2-hydroxypropyl)ethylenediamine], the “Visual Contraction of Human Keratinocytes (reduction in cell area, Mean ± Std Dev)” value (Human keratinocytes; 2 Min) is reported as 32.9% ±, the “Visual Contraction of Human Keratinocytes (reduction in cell area, Mean ± Std Dev)” value (Human keratinocytes; 10 Min) is reported as 37.9% ± 10.7% and the “Visual Contraction of Human Keratinocytes (reduction in cell area, Mean ± Std Dev)” value (Human keratinocytes; 20 Min) is reported as 47.3% ± 12.7%. The inhibition at 10 µg/mL [1] was 13.3%, the inhibition at 100 µg/mL [1] was 46.1% and the inhibition at 10 µg/mL (IFN (interferon-gamma)) was 18.1%. For the same molecule, the inhibition at 100 µg/mL (IFN (interferon-gamma)) was 37.9%, the “% tyrosinase activity relative to untreated control” value (tyrosinase; 0.01%) was 104.15% and the “% tyrosinase activity relative to untreated control” value (tyrosinase; 0.025%) was 167.39%. The “% tyrosinase activity relative to untreated control” value (tyrosinase; 0.05%) was 201.90% and the “effect on macrophages in culture” value (macrophages) was “increased macrophage activation”.
